Test results published in PubChem BioAssay AID743307 (Sanford-Burnham Center for Chemical Genomics, 2014).

Molecular target: Low molecular weight phosphotyrosine protein phosphatase (Homo sapiens) (UniProt P24666)
Test: inhibition of LMPTP-A enzymatic activity – biochemical, OMFP substrate, fluorescence intensity, set 2, dose response (AID 743307)
Conditions: LMPTP-A enzyme, OMFP fluorogenic substrate

Low molecular weight phosphotyrosine protein phosphatase (Homo sapiens), sequence (P24666 whole entry, looked up): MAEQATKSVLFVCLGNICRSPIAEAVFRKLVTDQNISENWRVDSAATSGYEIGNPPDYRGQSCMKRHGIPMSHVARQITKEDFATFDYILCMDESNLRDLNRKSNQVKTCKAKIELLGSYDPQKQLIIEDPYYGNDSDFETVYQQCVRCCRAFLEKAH

IC50: 1.68 µM
Structure (SMILES): COc1ccc(-c2cc(NCCCN3CCCCC3)c3ccccc3n2)cc1
